Test system: MV-4-11 cells
Test: Gene expression microarray analysis (Affymetrix PrimeView) and GSEA
Assay type: cell-based, human
Set-up: RFU PODN (11730768_x_at) / Fold change /veh PODN (11730768_x_at) / RFU LINC00158 (11744669_a_at) / Fold change /veh LINC00158 (11744669_a_at) / RFU DUSP10 (11751237_a_at) / Fold change /veh DUSP10 (11751237_a_at) / RFU ID3 (11757404_x_at) / Fold change /veh ID3 (11757404_x_at) / RFU PLEKHG5 (11737974_s_at) / Fold change /veh PLEKHG5 (11737974_s_at) / RFU LRRC4B (11730491_at) / Fold change /veh LRRC4B (11730491_at) / RFU GIMAP4 (11747438_a_at) / Fold change /veh GIMAP4 (11747438_a_at) / RFU KRT8 (11758183_x_at) / Fold change /veh KRT8 (11758183_x_at) / RFU CNN1 (11734310_a_at) / Fold change /veh CNN1 (11734310_a_at) / RFU VPS37D (11726825_at) / Fold change /veh VPS37D (11726825_at) / RFU C10orf10 (11716522_x_at) / Fold change /veh C10orf10 (11716522_x_at) / RFU KIR2DL2 /// KIR2DL4 /// KIR2DL5A /// KIR2DL5B /// KIR2DS1 /// KIR2DS2 /// KIR2DS3 /// KIR2DS4 /// KIR3DL3 /// KIR3DL3 /// KIR3DS1 (11738374_at) / Fold change /veh KIR2DL2 /// KIR2DL4 /// KIR2DL5A /// KIR2DL5B /// KIR2DS1 /// KIR2DS2 /// KIR2DS3 /// KIR2DS4 /// KIR3DL3 /// KIR3DL3 /// KIR3DS1 (11738374_at) / RFU C1QL1 (11718748_at) / Fold change /veh C1QL1 (11718748_at) / RFU TMPRSS4 (11747572_a_at) / Fold change /veh TMPRSS4 (11747572_a_at) / RFU HAMP (11756126_x_at) / Fold change /veh HAMP (11756126_x_at) / RFU RNFT2 (11725882_a_at) / Fold change /veh RNFT2 (11725882_a_at) / RFU NR4A2 (11747474_a_at) / Fold change /veh NR4A2 (11747474_a_at) / RFU ABCC12 (11746883_a_at) / Fold change /veh ABCC12 (11746883_a_at) / RFU TMEM136 (11760407_x_at) / Fold change /veh TMEM136 (11760407_x_at) / RFU CLDN22 /// WWC2 (11732394_at) / Fold change /veh CLDN22 /// WWC2 (11732394_at) / RFU HLA-DPB1 (11760878_x_at) / Fold change /veh HLA-DPB1 (11760878_x_at) / RFU SPINT1 (11716480_a_at) / Fold change /veh SPINT1 (11716480_a_at) / RFU GAP43 (11754022_s_at) / Fold change /veh GAP43 (11754022_s_at) / RFU A4GNT (11735810_at) / Fold change /veh A4GNT (11735810_at) / RFU PRB3 (11715151_x_at) / Fold change /veh PRB3 (11715151_x_at) / RFU TUBB4B (11761932_at) / Fold change /veh TUBB4B (11761932_at) / RFU CAPN14 (11732068_a_at) / Fold change /veh CAPN14 (11732068_a_at) / RFU TMCC2 (11721928_a_at) / Fold change /veh TMCC2 (11721928_a_at) / RFU IRGQ (11745062_a_at) / Fold change /veh IRGQ (11745062_a_at) / RFU FAM174B (11720279_a_at) / Fold change /veh FAM174B (11720279_a_at) / RFU TMPRSS4 (11748680_a_at) / Fold change /veh TMPRSS4 (11748680_a_at) / RFU FAM212B (11763350_a_at) / Fold change /veh FAM212B (11763350_a_at) / RFU PLEKHG5 (11743358_a_at) / Fold change /veh PLEKHG5 (11743358_a_at) / RFU ZSCAN30 (11745921_a_at) / Fold change /veh ZSCAN30 (11745921_a_at) / RFU CMKLR1 (11741424_a_at) / Fold change /veh CMKLR1 (11741424_a_at) / RFU LOC101060620 /// MAPK8IP1 (11723275_at) / Fold change /veh LOC101060620 /// MAPK8IP1 (11723275_at) / RFU SPTSSB (11747773_x_at) / Fold change /veh SPTSSB (11747773_x_at) / RFU PRSS12 (11739890_at) / Fold change /veh PRSS12 (11739890_at) / RFU BIN1 (11741810_x_at) / Fold change /veh BIN1 (11741810_x_at) / RFU WNT11 (11732464_a_at) / Fold change /veh WNT11 (11732464_a_at) / RFU C10orf10 (11716521_a_at) / Fold change /veh C10orf10 (11716521_a_at) / RFU C5orf56 (11738089_at) / Fold change /veh C5orf56 (11738089_at) / RFU CYB561 (11721691_x_at) / Fold change /veh CYB561 (11721691_x_at) / RFU ANKRD19P (11752326_a_at) / Fold change /veh ANKRD19P (11752326_a_at) / RFU OR2T12 /// OR2T33 /// OR2T8 (11738714_s_at) / Fold change /veh OR2T12 /// OR2T33 /// OR2T8 (11738714_s_at) / RFU VCAN (11748164_a_at) / Fold change /veh VCAN (11748164_a_at) / RFU JSRP1 (11732532_at) / Fold change /veh JSRP1 (11732532_at) / RFU KRTAP10-11 (11738290_x_at) / Fold change /veh KRTAP10-11 (11738290_x_at) / RFU MYO3A (11730013_a_at) / Fold change /veh MYO3A (11730013_a_at) / RFU EBF3 (11725865_a_at) / Fold change /veh EBF3 (11725865_a_at) / RFU CAMK2N1 (11719241_x_at) / Fold change /veh CAMK2N1 (11719241_x_at) / RFU C5orf56 (11738088_a_at) / Fold change /veh C5orf56 (11738088_a_at) / RFU OLFML3 (11715873_a_at) / Fold change /veh OLFML3 (11715873_a_at) / RFU LOC100653217 /// NTM (11731650_a_at) / Fold change /veh LOC100653217 /// NTM (11731650_a_at) / RFU MAPK11 (11762145_a_at) / Fold change /veh MAPK11 (11762145_a_at) / RFU FIZ1 (11724087_x_at) / Fold change /veh FIZ1 (11724087_x_at) / RFU OASL (11726364_x_at) / Fold change /veh OASL (11726364_x_at) / RFU SOX15 (11748057_x_at) / Fold change /veh SOX15 (11748057_x_at) / RFU CD79A (11719716_a_at) / Fold change /veh CD79A (11719716_a_at) / RFU HIST1H1D (11736915_at) / Fold change /veh HIST1H1D (11736915_at) / RFU CASKIN2 (11723855_a_at) / Fold change /veh CASKIN2 (11723855_a_at) / RFU LOC730098 (11760151_x_at) / Fold change /veh LOC730098 (11760151_x_at) / RFU OR4N2 (11742367_at) / Fold change /veh OR4N2 (11742367_at) / RFU PRRT2 (11749266_a_at) / Fold change /veh PRRT2 (11749266_a_at) / RFU SNX32 (11753110_a_at) / Fold change /veh SNX32 (11753110_a_at) / RFU CDHR5 (11726645_a_at) / Fold change /veh CDHR5 (11726645_a_at) / RFU RCAN1 (11760418_a_at) / Fold change /veh RCAN1 (11760418_a_at) / RFU FAM167A (11723789_a_at) / Fold change /veh FAM167A (11723789_a_at) / RFU FAM26E (11764081_at) / Fold change /veh FAM26E (11764081_at) / RFU ISYNA1 (11749810_s_at) / Fold change /veh ISYNA1 (11749810_s_at) / RFU ACY1 (11761880_at) / Fold change /veh ACY1 (11761880_at) / RFU 11764098_at / Fold change /veh 11764098_at / RFU SAMD14 (11745864_x_at) / Fold change /veh SAMD14 (11745864_x_at) / RFU NPB (11741838_a_at) / Fold change /veh NPB (11741838_a_at) / RFU TMPRSS6 (11731388_a_at) / Fold change /veh TMPRSS6 (11731388_a_at) / RFU KRTAP10-2 (11738614_at) / Fold change /veh KRTAP10-2 (11738614_at) / RFU ARHGAP8 /// PRR5-ARHGAP8 (11727945_x_at) / Fold change /veh ARHGAP8 /// PRR5-ARHGAP8 (11727945_x_at) / RFU KRTAP5-7 /// NADSYN1 (11734609_at) / Fold change /veh KRTAP5-7 /// NADSYN1 (11734609_at) / RFU RASL12 (11751679_a_at) / Fold change /veh RASL12 (11751679_a_at) / RFU CDKN2B (11736163_a_at) / Fold change /veh CDKN2B (11736163_a_at) / RFU PRF1 (11729649_at) / Fold change /veh PRF1 (11729649_at) / RFU, ZNF638 /// ZNF638-IT1 / Fold change vs veh, ZNF638 /// ZNF638-IT1 / RFU, PANK3 / Fold change vs veh, PANK3 / RFU, SH3YL1 / Fold change vs veh, SH3YL1 / RFU, ZEB2 / Fold change vs veh, ZEB2 / RFU, NRIP1 / Fold change vs veh, NRIP1 / RFU, PTTG1IP / Fold change vs veh, PTTG1IP / RFU, CAPN2 / Fold change vs veh, CAPN2 / RFU, MED14 / Fold change vs veh, MED14 / RFU, SNORA58 / Fold change vs veh, SNORA58 / RFU, C1orf63 / Fold change vs veh, C1orf63 / RFU, LRRFIP1 / Fold change vs veh, LRRFIP1 / RFU, NDUFAF7 / Fold change vs veh, NDUFAF7 / RFU, SLC12A2 / Fold change vs veh, SLC12A2 / RFU, IBTK / Fold change vs veh, IBTK / RFU, ESF1 / Fold change vs veh, ESF1 / Fold change vs veh, TMEM50B / RFU, TAOK1 / Fold change vs veh, TAOK1 / RFU, ACBD3 / Fold change vs veh, ACBD3 / RFU, TMA16 / Fold change vs veh, TMA16 / RFU, RWDD3 / Fold change vs veh, RWDD3 / RFU, BCAT1 / Fold change vs veh, BCAT1 / RFU, EDEM3 / Fold change vs veh, EDEM3 / RFU, TMEM33 / Fold change vs veh, TMEM33 / RFU, WDR75 / Fold change vs veh, WDR75 / RFU, AHCTF1 / Fold change vs veh, AHCTF1 / RFU, TFRC / Fold change vs veh, TFRC / RFU, ZDHHC17 / Fold change vs veh, ZDHHC17 / RFU, NOM1 / Fold change vs veh, NOM1 / RFU, ARL8B / Fold change vs veh, ARL8B / RFU, ZBTB11 / Fold change vs veh, ZBTB11 / RFU, TAMM41 / Fold change vs veh, TAMM41 / RFU, KIAA1704 /// LOC100996395 / Fold change vs veh, KIAA1704 /// LOC100996395 / RFU, ING1 / Fold change vs veh, ING1 / RFU, TRMT61B / Fold change vs veh, TRMT61B / RFU, FUBP3 / Fold change vs veh, FUBP3 / RFU, TP53 / Fold change vs veh, TP53 / RFU, TNKS2 / Fold change vs veh, TNKS2 / RFU, ZFP14 / Fold change vs veh, ZFP14 / RFU, ACTR2 / Fold change vs veh, ACTR2 / RFU, PPP3R1 / Fold change vs veh, PPP3R1 / RFU, PIK3R1 / Fold change vs veh, PIK3R1 / RFU, HNRNPA1 / Fold change vs veh, HNRNPA1 / RFU, RNF170 / Fold change vs veh, RNF170 / RFU, ZNF28 / Fold change vs veh, ZNF28 / RFU, RNGTT / Fold change vs veh, RNGTT / RFU, OGT / Fold change vs veh, OGT / RFU, BRD1 / Fold change vs veh, BRD1 / RFU, MARS / Fold change vs veh, MARS / RFU, ZNF655 / Fold change vs veh, ZNF655 / RFU, FAHD1 / Fold change vs veh, FAHD1 / RFU, BDP1 / Fold change vs veh, BDP1 / RFU, LRRCC1 / Fold change vs veh, LRRCC1 / RFU, ARID1A / Fold change vs veh, ARID1A / RFU, ZNF146 / Fold change vs veh, ZNF146 / RFU, ZNF330 / Fold change vs veh, ZNF330 / RFU, GPN3 / Fold change vs veh, GPN3 / RFU, C9orf123 / Fold change vs veh, C9orf123 / RFU, N4BP2L2 / Fold change vs veh, N4BP2L2 / RFU, ARFIP1 / Fold change vs veh, ARFIP1 / RFU, FAM179B / Fold change vs veh, FAM179B / RFU, BCL10 / Fold change vs veh, BCL10 / RFU, UHRF1BP1L / Fold change vs veh, UHRF1BP1L / RFU, BET1 / Fold change vs veh, BET1 / RFU, CNOT2 / Fold change vs veh, CNOT2 / RFU, ZNF268 / Fold change vs veh, ZNF268 / Fold change vs veh, ZNF507 / RFU, DGCR2 / Fold change vs veh, DGCR2 / RFU, WDSUB1 / Fold change vs veh, WDSUB1 / Fold change vs veh, HSP90B1 /// MIR3652 / RFU, ADSS / Fold change vs veh, ADSS / RFU, GK / Fold change vs veh, GK / RFU, ZNF148 / Fold change vs veh, ZNF148 / RFU, TAF9 / Fold change vs veh, TAF9 / RFU, SLC1A5 / Fold change vs veh, SLC1A5 / RFU, SLMO2 / Fold change vs veh, SLMO2 / RFU, ABCC4 / Fold change vs veh, ABCC4 / RFU, LOC101060439 /// RAP1B / Fold change vs veh, LOC101060439 /// RAP1B / RFU, RFX7 / Fold change vs veh, RFX7 / RFU, GTPBP10 / Fold change vs veh, GTPBP10 / RFU, CNEP1R1 / Fold change vs veh, CNEP1R1 / RFU, BIVM-ERCC5 /// ERCC5 / Fold change vs veh, BIVM-ERCC5 /// ERCC5 / RFU, ILF3 / Fold change vs veh, ILF3 / RFU 11762660_at / Fold change /veh 11762660_at / RFU VCAN (11757783_s_at) / Fold change /veh VCAN (11757783_s_at) / RFU DDX43 (11728927_at) / Fold change /veh DDX43 (11728927_at) / RFU KRT8 (11758188_x_at) / Fold change /veh KRT8 (11758188_x_at) / RFU NKD1 (11759106_at) / Fold change /veh NKD1 (11759106_at) / RFU SRD5A1 (11742802_a_at) / Fold change /veh SRD5A1 (11742802_a_at) / RFU TPSAB1 /// TPSB2 (11721975_s_at) / Fold change /veh TPSAB1 /// TPSB2 (11721975_s_at) / RFU GSTM3 (11746129_a_at) / Fold change /veh GSTM3 (11746129_a_at) / RFU IL23R (11737362_x_at) / Fold change /veh IL23R (11737362_x_at) / RFU TMEM51 (11727254_a_at) / Fold change /veh TMEM51 (11727254_a_at) / RFU PIWIL2 (11732686_x_at) / Fold change /veh PIWIL2 (11732686_x_at) / RFU ORM1 (11744905_x_at) / Fold change /veh ORM1 (11744905_x_at) / RFU CCDC152 (11743942_at) / Fold change /veh CCDC152 (11743942_at) / RFU ECM1 (11717891_a_at) / Fold change /veh ECM1 (11717891_a_at) / RFU IL23R (11748794_a_at) / Fold change /veh IL23R (11748794_a_at) / RFU TNFAIP8L3 (11732012_x_at) / Fold change /veh TNFAIP8L3 (11732012_x_at) / RFU MBOAT4 (11741988_at) / Fold change /veh MBOAT4 (11741988_at) / RFU 11764193_at / Fold change /veh 11764193_at / RFU TMEM53 (11763286_at) / Fold change /veh TMEM53 (11763286_at) / RFU MAGEB2 (11727129_at) / Fold change /veh MAGEB2 (11727129_at) / RFU TMEM200A (11744735_a_at) / Fold change /veh TMEM200A (11744735_a_at) / RFU CCDC152 (11751479_a_at) / Fold change /veh CCDC152 (11751479_a_at) / RFU FAM211A (11726209_a_at) / Fold change /veh FAM211A (11726209_a_at) / RFU RGS16 (11746705_a_at) / Fold change /veh RGS16 (11746705_a_at) / RFU VCAN (11755009_s_at) / Fold change /veh VCAN (11755009_s_at) / RFU RHOB (11743442_s_at) / Fold change /veh RHOB (11743442_s_at) / RFU RGS16 (11720943_a_at) / Fold change /veh RGS16 (11720943_a_at) / RFU RGS16 (11720944_at) / Fold change /veh RGS16 (11720944_at) / RFU, VPS4B / Fold change vs veh, VPS4B / RFU, CREB1 / Fold change vs veh, CREB1 / RFU, DNAJC13 / Fold change vs veh, DNAJC13 / RFU, GNAQ / Fold change vs veh, GNAQ / RFU, CDK5R1 / Fold change vs veh, CDK5R1 / RFU, ZRANB3 / Fold change vs veh, ZRANB3 / RFU, CUL4A / Fold change vs veh, CUL4A / RFU, CCNY / Fold change vs veh, CCNY / RFU, UFL1 / Fold change vs veh, UFL1 / RFU, COG3 / Fold change vs veh, COG3 / RFU, DIAPH2 / Fold change vs veh, DIAPH2 / RFU, SKA2 / Fold change vs veh, SKA2 / RFU, AFF3 / Fold change vs veh, AFF3 / RFU, LMF1 / Fold change vs veh, LMF1 / RFU, IPO11 / Fold change vs veh, IPO11 / RFU, DFFB / Fold change vs veh, DFFB / RFU, FOXP1 / Fold change vs veh, FOXP1 / RFU, CARD8 / Fold change vs veh, CARD8 / RFU, STRN3 / Fold change vs veh, STRN3 / RFU, ADK / Fold change vs veh, ADK / RFU, RASSF2 / Fold change vs veh, RASSF2 / RFU, WIPF1 / Fold change vs veh, WIPF1 / RFU, LARP1B / Fold change vs veh, LARP1B / RFU, RASA1 / Fold change vs veh, RASA1 / RFU, RB1 / Fold change vs veh, RB1 / RFU, PPFIA1 / Fold change vs veh, PPFIA1 / RFU, MAT2A / Fold change vs veh, MAT2A / RFU, CCT5 / Fold change vs veh, CCT5 / RFU, WDR92 / Fold change vs veh, WDR92 / RFU, CUX1 / Fold change vs veh, CUX1 / RFU, TTC7A / Fold change vs veh, TTC7A / RFU, TMEM135 / Fold change vs veh, TMEM135 / RFU, DEPTOR / Fold change vs veh, DEPTOR / RFU, CPM / Fold change vs veh, CPM / RFU, DNAJB6 / Fold change vs veh, DNAJB6 / RFU, CACNA2D3 / Fold change vs veh, CACNA2D3 / RFU, DTX4 / Fold change vs veh, DTX4 / RFU, TFCP2 / Fold change vs veh, TFCP2 / RFU, GMCL1 /// GMCL1P1 / Fold change vs veh, GMCL1 /// GMCL1P1 / RFU, AEBP2 / Fold change vs veh, AEBP2 / RFU, SNHG1 /// SNORD22 /// SNORD25 /// SNORD26 /// SNORD27 /// SNORD28 /// SNORD29 /// SNORD31 / Fold change vs veh, SNHG1 /// SNORD22 /// SNORD25 /// SNORD26 /// SNORD27 /// SNORD28 /// SNORD29 /// SNORD31 / Fold change (Aza/veh), C12orf56 (ProbeSet 11735607_a_at) / Fold change (ACY-1035/veh), C12orf56 (ProbeSet 11735607_a_at) / Fold change (Aza/veh), FGFR1OP (ProbeSet 11751329_s_at) / Fold change (ACY-1035/veh), FGFR1OP (ProbeSet 11751329_s_at) / Fold change (Aza/veh), VPS36 (ProbeSet 11739960_a_at) / Fold change (ACY-1035/veh), VPS36 (ProbeSet 11739960_a_at) / RFU SYPL1 (11715823_x_at) / Fold change /veh SYPL1 (11715823_x_at) / RFU IGFBP7 (11715501_s_at) / Fold change /veh IGFBP7 (11715501_s_at) / RFU REEP3 (11722064_at) / Fold change /veh REEP3 (11722064_at) / RFU IGLL1 (11728026_x_at) / Fold change /veh IGLL1 (11728026_x_at): dose or concentration left out as unconfirmed
Conditions: ProbeSet 11723930_at; LIST D

Nc1ncn([C@@H]2O[C@H](CO)[C@@H](O)[C@H]2O)c(=O)n1 [azacitidine]
Fold change vs veh, CCT5: 0.69

Reference: PMC5218480 (PLoS ONE, 2017)
